Reference: ChEMBL document CHEMBL4715905, “Solution Conformations Shed Light on PROTAC Cell Permeability” (ACS Med Chem Lett, 2021)
Values after ≈ are worked out from the molar mass of the structure shown.

Key:
[1] = biological target: Mitogen-activated protein kinase 7 (Homo sapiens, UniProt Q13164); experiment: Inhibition of recombinant human GST-tagged ERK5 (1 to 398 assessed as phosphorylated peptide substrate incubated for 60 mins by TR-FRET based biochemical assay
[2] = Solubility of compound in PBS buffer at pH 6.5; type: physicochemical
[3] = Lipophilicity, logD of compound at pH 7.5; type: physicochemical; conditions: buffer

Sequence of Mitogen-activated protein kinase 7 (Q13164 whole entry): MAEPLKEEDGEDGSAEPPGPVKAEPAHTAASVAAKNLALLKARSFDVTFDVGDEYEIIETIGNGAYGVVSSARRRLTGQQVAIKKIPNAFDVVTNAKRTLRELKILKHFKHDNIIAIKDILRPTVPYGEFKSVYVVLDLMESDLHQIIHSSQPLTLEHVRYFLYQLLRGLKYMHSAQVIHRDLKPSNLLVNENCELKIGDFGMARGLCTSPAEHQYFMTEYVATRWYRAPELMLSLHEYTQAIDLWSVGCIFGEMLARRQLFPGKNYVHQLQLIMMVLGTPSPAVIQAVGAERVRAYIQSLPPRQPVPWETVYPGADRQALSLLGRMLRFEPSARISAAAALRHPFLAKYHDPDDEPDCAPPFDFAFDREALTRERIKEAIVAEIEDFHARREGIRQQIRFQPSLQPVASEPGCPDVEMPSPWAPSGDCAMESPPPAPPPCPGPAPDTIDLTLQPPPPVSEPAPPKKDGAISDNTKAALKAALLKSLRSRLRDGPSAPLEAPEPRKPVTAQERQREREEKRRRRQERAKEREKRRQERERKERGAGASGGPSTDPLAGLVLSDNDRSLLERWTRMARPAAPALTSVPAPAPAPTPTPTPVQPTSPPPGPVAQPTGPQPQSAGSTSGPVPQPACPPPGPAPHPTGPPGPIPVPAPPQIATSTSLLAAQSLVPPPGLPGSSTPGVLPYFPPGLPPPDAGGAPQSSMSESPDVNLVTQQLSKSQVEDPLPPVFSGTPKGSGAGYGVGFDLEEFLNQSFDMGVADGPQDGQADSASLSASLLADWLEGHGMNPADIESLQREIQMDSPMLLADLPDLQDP

`Cc1ncsc1-c1ccc(CNC(=O)[C@@H]2C[C@@H](O)CN2C(=O)[C@@H](NC(=O)COCCOCCNC(=O)COc2cnc3c(C4CCN(C(=O)c5ccc(OC(F)(F)F)cc5)CC4)ncnc3c2)C(C)(C)C)cc1` showed an IC50 [1] of 1.23 µM, a solubility [2] of 7 µg/mL (≈ 6.77 µM) and a logD [3] of 2.68.
